From ChEMBL document CHEMBL1157451, “Effect of some P-glycoprotein modulators on Rhodamine-123 absorption in guinea-pig ileum” (Bioorg Med Chem Lett, 2008)

Experiment: Inhibition of P-glycoprotein-mediated rhodamine 123 absorption in guinea-pig ileum
Type: tissue-based
Settings: Cavia porcellus

Row | EC50 [µM] | SMILES
1 | 14.7 | COc1cccc(CCc2ccccc2OCc2ccccn2)c1
2 | 39.4 | CC/C(=C(\c1ccccc1)c1ccc(OCCN(C)C)cc1)c1ccccc1 [TAMOXIFEN]
